Source: US20160143971A1, “COMBINATION THERAPY FOR PROSTATE CANCER USING BOTANICAL COMPOSITIONS AND DOCETAXEL” (GENYOUS BIOMED INTERNATIONAL, priority 2013, published 2016)

Legend:
[1] = system: human prostate cancer cells in mouse xenografts; conditions: cited from earlier work
PSA = conditions: cited from earlier work
[2] = system: human prostate cancer cells in culture; conditions: cited from earlier work
[3] = system: LNCaP (androgen-sensitive) human prostate cancer tumors SRCX; experiment: Growth of LNCaP prostate cancer tumors SRCX in mice; format: in vivo; conditions: 3 weeks
Procedure: LNCaP prostate cancer was treated for 3 weeks according to the following regimen.

[4] = cited from earlier work
[5] = system: androgen-independent metastatic prostate cancer; conditions: TAX 327 phase III study, patients; cited from earlier work

COc1cc(CNC(=O)CCCC/C=C/C(C)C)ccc1O [capsaicin]
anti-proliferative effect [1]: profound anti-proliferative effect
PSA expression (PSA): down-regulates PSA expression
anti-proliferative effect [2]: profound anti-proliferative effect

CC(=O)O[C@@]12CO[C@@H]1C[C@H](O)[C@@]1(C)C(=O)[C@H](O)C3=C(C)[C@@H](OC(=O)[C@H](O)[C@@H](NC(=O)OC(C)(C)C)c4ccccc4)C[C@@](O)([C@@H](OC(=O)c4ccccc4)[C@H]21)C3(C)C [Taxotere®, docetaxel]
inhibition of growth of LNCaP tumors ([3]; Aneustat 1652 mg/kg oral gavage QD x 21, Taxotere 10 mg/kg IP d=1, 8, 15, P<0.01): significantly inhibited growth
efficacy in tumor size reduction (FIG. 1) ([3]; Aneustat 1652 mg/kg oral, Taxotere 10 mg/kg IP): somewhat more effective
water solubility compared with paclitaxel [4]: more water soluble than paclitaxel
overall response rate [5]: 12%

O=C1c2c(O)ccc(O)c2C(=O)c2c(NCCNCCO)ccc(NCCNCCO)c21 [mitoxantrone]
overall response rate [5]: 7%
